Reference: patent publication US10519154B2, “7-substituted 1-pyridyl-naphthyridine-3-carboxylic acid amides and use thereof” (Bayer Pharma Aktiengesellschaft, priority 2016, dated 2019)

What was measured:
human M2 receptor [1] = target: T1, human M2 receptor (Homo sapiens, UniProt P08172); assay: Functional M2-GIRK1/4 activation test: positive cooperativity (alpha factor); settings: shift of acetylcholine dose-response curve (Allosteric EC50 shift); CHO-DUKX-M2-GIRK cells
T1 sequence (P08172 1-466): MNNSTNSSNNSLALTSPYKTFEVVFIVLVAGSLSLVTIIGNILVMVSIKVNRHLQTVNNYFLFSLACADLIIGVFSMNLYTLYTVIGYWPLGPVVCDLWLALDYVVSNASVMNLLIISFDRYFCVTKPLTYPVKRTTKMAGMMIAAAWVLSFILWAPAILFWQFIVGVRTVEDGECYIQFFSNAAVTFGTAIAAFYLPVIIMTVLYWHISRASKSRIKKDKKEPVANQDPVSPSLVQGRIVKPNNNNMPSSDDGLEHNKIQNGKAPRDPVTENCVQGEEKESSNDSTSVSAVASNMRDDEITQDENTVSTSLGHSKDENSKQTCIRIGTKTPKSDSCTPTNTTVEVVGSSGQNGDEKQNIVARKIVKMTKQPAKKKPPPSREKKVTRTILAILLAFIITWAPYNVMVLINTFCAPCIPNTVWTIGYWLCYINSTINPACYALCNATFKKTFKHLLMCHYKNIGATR
Excerpt: The binding of orthosteric agonists (endogenous ligand: acetylcholine) to the M2 receptor leads to receptor activation or a change in conformation of the receptor in the manner of a shift in equilibrium in favor of the active receptor conformation.
The agonist-induced change in conformation of the M2 receptor results in a Gαi protein activation. […] Under physiological conditions, the result is then a selective efflux of potassium from the cell along the electrochemical gradient. […] The extent of hyperpolarization can therefore be regarded as a measure of the activation of the M2 receptor.
The test cell used is a recombinant CHO-DUKX cell line which has been stably transfected with cDNA coding for the human M2 receptor and with cDNA coding for both GIRK1/4 subunits (CHO-DUKX-M2-GIRK). The transmembrane potential, or the relative changes in the transmembrane potential as a function of substance addition or M2 activation, is determined by means of a voltage-sensitive dye (FLIPR Membrane Potential Assay Kit Blue, Molecular Devices #R8034) and the measurement of cell fluorescence using a proprietary fluorescence imaging instrument.
In accordance with the desired test concentrations, the substances were pre-diluted in loading buffer (see above).
The sowing medium consisted of MEM alpha medium (supplemented with 5% FCS, 2% Glutamax, no genticin).
For the particular measurement, the medium was removed and the cells were laden with the voltage-sensitive dye for at least 6 min at room temperature (30 μl of loading buffer per 384-well). This was followed, in a first measurement, by the determination of the resting transmembrane potential for a period of 5 sec in 1 sec increments. Thereafter, 10 μl in each case of the test substances diluted in loading buffer are added, followed by a second measurement to determine the transmembrane potential for a period of 50 sec in 1 sec increments.
Finally, the cells are admixed with 10 μl of agonist solution (acetylcholine dissolved in loading buffer). In contrast to the EC50 determination of the test substances (see B-1.1), however, this is not done using one acetylcholine concentration; instead, every concentration of the test substance is combined with an acetylcholine 8-point dose-response curve. […] The M2-mediated GIRK1/4 activation or hyperpolarization is then monitored in a third measurement over a period of 60 sec in 1 sec increments. The shift in the acetylcholine dose-response curve in the presence of increasing concentrations of the test substance is analyzed and quantified by means of GraphPad PRISM (Allosteric EC50 shift). […] Positive cooperativity is the hallmark of a positive allosteric modulator. […] The greater the magnitude of the cc value, the greater the extent of cooperativity between orthosteric and allosteric.

human M2 receptor [2] = target: T1, human M2 receptor; assay: Functional M2-GIRK1/4 activation test: allosteric potency (EC50) and efficiency; settings: for EC50: Receptor activity EC50, CHO-DUKX-M2-GIRK cells, acetylcholine at EC20, in some cases mean of two or more determinations; for Emax: read-out: Efficiency, boosting of the acetylcholine effect at EC20 acetylcholine concentration; for Emax / Efficiency: CHO-DUKX-M2-GIRK cells; for Efficiency: boosting of the acetylcholine effect at EC20 acetylcholine concentration

| SMILES | Cooperativity (alpha factor) (human M2 receptor [1]) | EC50 (human M2 receptor [2]) [nM] | Emax (human M2 receptor [2]) [%] | Efficiency (human M2 receptor [2]) [%] |
| --- | --- | --- | --- | --- |
| O=C(NC(c1ccccc1Cl)C(F)(F)F)c1cn(-c2ncc(F)cc2F)c2nc(N3C[C@@H](O)[C@H](O)C3)ccc2c1=O (single isomer, unassigned) [Example 84] | 57 | 20 | 100 |  |
| O=C(NC(C(F)(F)F)C(F)(F)F)c1cn(-c2ncc(F)cc2F)c2nc(N3C[C@@H](O)[C@@H](O)C3)ccc2c1=O [Example 55, 1-(3,5-Difluoropyridin-2-yl)-7-[(3R,4S)-3,4-dihydroxypyrrolidin-1-yl]-N-(1,1,1,3,3,3-hexafluoropropan-2-yl)-4-oxo-1,4-dihydro-1,8-naphthyridine-3-carboxamide] | 79 | 110 | 100 |  |
| CCC(NC(=O)c1cn(-c2ncc(F)cc2F)c2nc(N3C[C@@H](O)[C@H](O)C3)ccc2c1=O)C(F)(F)C(F)(F)F (single isomer, unassigned) [Example 97] | 53 | 38 |  | 96.50 |
| O=C(Nc1c(Cl)cccc1Cl)c1cn(-c2ncc(F)cc2F)c2nc(N3C[C@@H](O)CC3=O)ccc2c1=O [Example 16, N-(2,6-Dichlorophenyl)-1-(3,5-difluoropyridin-2-yl)-7-[(4S)-4-hydroxy-2-oxopyrrolidin-1-yl]-4-oxo-1,4-dihydro-1,8-naphthyridine-3-carboxamide] | 40 | 48 | 99 |  |
| O=C(NC(c1ccccc1Cl)C(F)(F)F)c1cn(-c2ncc(F)cc2F)c2nc(N3C[C@@H](O)CC3=O)ccc2c1=O (mixture of isomers) [Example 4, N-[1-(2-Chlorophenyl)-2,2,2-trifluoroethyl]-1-(3,5-difluoropyridin-2-yl)-7-[(4S)-4-hydroxy-2-oxopyrrolidin-1-yl]-4-oxo-1,4-dihydro-1,8-naphthyridine-3-carboxamide] | 63 | 14 | 98.2 |  |
| O=C(NC1(C(F)(F)F)CCCC1)c1cn(-c2ncc(F)cc2F)c2nc(N3C[C@@H](O)CC3=O)ccc2c1=O [Example 79, 1-(3,5-Difluoropyridin-2-yl)-7-[(4S)-4-hydroxy-2-oxopyrrolidin-1-yl]-4-oxo-N-[1-(trifluoromethyl)cyclopentyl]-1,4-dihydro-1,8-naphthyridine-3-carboxamide] |  | 54 | 100 |  |
| O=C(NC(C(F)(F)F)C(F)(F)F)c1cn(-c2ncc(F)cc2F)c2nc(N3CCCC[C@@H]3CO)ccc2c1=O [Example 178, 1-(3,5-Difluoropyridin-2-yl)-N-(1,1,1,3,3,3-hexafluoropropan-2-yl)-7-[(2R)-2-(hydroxymethyl)piperidin-1-yl]-4-oxo-1,4-dihydro-1,8-naphthyridine-3-carboxamide] |  | 56 | 100 |  |
| O=C(NC1(C(F)(F)F)CCC1)c1cn(-c2ncc(F)cc2F)c2nc(N3C[C@@H](O)CC3=O)ccc2c1=O [Example 151, 1-(3,5-Difluoropyridin-2-yl)-7-[(4S)-4-hydroxy-2-oxopyrrolidin-1-yl]-4-oxo-N-[1-(trifluoromethyl)cyclobutyl]-1,4-dihydro-1,8-naphthyridine-3-carboxamide] |  | 290 | 99 |  |
| CC1(C)C(=O)N(c2ccc3c(=O)c(C(=O)N[C@H](C4CC4)C(F)(F)F)cn(-c4ncc(F)cc4F)c3n2)C2(CC2)C1O (stereo partly shown) [Example 32] |  | 400 | 89.5 |  |
| O=C(NC(C(F)(F)F)C(F)(F)F)c1cn(-c2ncc(F)cc2F)c2nc(N3CC4CC4(O)C3)ccc2c1=O (single isomer, unassigned) [Example 58, 1-(3,5-Difluoropyridin-2-yl)-N-(1,1,1,3,3,3-hexafluoropropan-2-yl)-7-[1-hydroxy-3-azabicyclo[3.1.0]hex-3-yl]-4-oxo-1,4-dihydro-1,8-naphthyridine-3-carboxamide] |  | 11 | 96 |  |
| O=C(NC(c1ccc(F)cc1)C(F)(F)F)c1cn(-c2ncc(F)cc2F)c2nc(N3C[C@@H](O)CC3=O)ccc2c1=O (single isomer, unassigned) [Example 13] |  | 130 |  | 99.50 |
| CC1C(O)C2(CC2)C(=O)N1c1ccc2c(=O)c(C(=O)N[C@@H](C3CC3)C(F)(F)F)cn(-c3ncc(F)cc3F)c2n1 (stereo partly drawn) [Example 115, N-[(1S)-1-Cyclopropyl-2,2,2-trifluoroethyl]-1-(3,5-difluoropyridin-2-yl)-7-[7-hydroxy-6-methyl-4-oxo-5-azaspiro[2.4]hept-5-yl]-4-oxo-1,4-dihydro-1,8-naphthyridine-3-carboxamide] |  | 150 | 89 |  |

Now from value to compound:

| Cooperativity (alpha factor) (human M2 receptor [1]) | EC50 (human M2 receptor [2]) [nM] | Emax (human M2 receptor [2]) [%] | Efficiency (human M2 receptor [2]) [%] | SMILES |
| --- | --- | --- | --- | --- |
| 17 | 19 | 100 |  | CC1CC(=O)N(c2ccc3c(=O)c(C(=O)N[C@H](C4CC4)C(F)(F)F)cn(-c4ncc(F)cc4F)c3n2)C1 (single isomer, unassigned) [Example 28] |
| 30 | 13 | 84 |  | CCC(NC(=O)c1cn(-c2ncc(F)cc2F)c2nc(N3CCNC3=O)ccc2c1=O)C(F)(F)C(F)(F)F (single isomer, unassigned) [Example 165, 1-(3,5-Difluoropyridin-2-yl)-4-oxo-7-(2-oxoimidazolidin-1-yl)-N-[1,1,1,2,2-pentafluoropentan-3-yl]-1,4-dihydro-1,8-naphthyridine-3-carboxamide] |
| 32 | 154 | 91.3 |  | CC[C@H](NC(=O)c1cn(-c2ncc(F)cc2F)c2nc(N3CCNC3=O)ccc2c1=O)C(F)(F)F [Example 64, 1-(3,5-Difluoropyridin-2-yl)-4-oxo-7-(2-oxoimidazolidin-1-yl)-N-[(2S)-1,1,1-trifluorobutan-2-yl]-1,4-dihydro-1,8-naphthyridine-3-carboxamide] |
| 41 | 14 | 98 |  | CCC(NC(=O)c1cn(-c2ncc(F)cc2F)c2nc(N3C[C@@H](O)CC3=O)ccc2c1=O)C(F)(F)C(F)(F)F (single isomer, unassigned) [Example 93] |
| 68 | 10 | 100 |  | CC(C)(C)[C@@H](NC(=O)c1cn(-c2ncc(F)cc2F)c2nc(N3C[C@@H](O)CC3=O)ccc2c1=O)C(F)(F)F [Example 73, 1-(3,5-Difluoropyridin-2-yl)-7-[(4S)-4-hydroxy-2-oxopyrrolidin-1-yl]-4-oxo-N-[(2R)-1,1,1-trifluoro-3,3-dimethylbutan-2-yl]-1,4-dihydro-1,8-naphthyridine-3-carboxamide] |
| 24 | 111 | 88 |  | CCC(COC(F)(F)F)NC(=O)c1cn(-c2ncc(F)cc2F)c2nc(N3C[C@@H](O)CC3=O)ccc2c1=O (mixture of isomers) [Example 17, 1-(3,5-Difluoropyridin-2-yl)-7-[(4S)-4-hydroxy-2-oxopyrrolidin-1-yl]-4-oxo-N-[1-(trifluoromethoxy)butan-2-yl]-1,4-dihydro-1,8-naphthyridine-3-carboxamide] |
| 61 | 70 | 98.5 |  | O=C(N[C@H](C1CC1)C(F)(F)F)c1cn(-c2ncc(F)cc2F)c2nc(N3C[C@@H](O)CC3=O)ccc2c1=O [Example 138, N-[(1R)-1-Cyclopropyl-2,2,2-trifluoroethyl]-1-(3,5-difluoropyridin-2-yl)-7-[(4S)-4-hydroxy-2-oxopyrrolidin-1-yl]-4-oxo-1,4-dihydro-1,8-naphthyridine-3-carboxamide] |
|  | 55 | 98.5 |  | O=C(NC(c1ccccc1Cl)C(F)(F)F)c1cn(-c2ncc(F)cc2F)c2nc(N3CCNC3=O)ccc2c1=O (racemic) [Example 147, N-[1-(2-Chlorophenyl)-2,2,2-trifluoroethyl]-1-(3,5-difluoropyridin-2-yl)-4-oxo-7-(2-oxoimidazolidin-1-yl)-1,4-dihydro-1,8-naphthyridine-3-carboxamide] |
|  | 560 | 97 |  | CC[C@@H](NC(=O)c1cn(-c2ncc(F)cc2Cl)c2nc(N3CCC(C)(O)C3)ccc2c1=O)C(F)(F)F (mixture of isomers) [Example 49, 1-(3-Chloro-5-fluoropyridin-2-yl)-7-[3-hydroxy-3-methylpyrrolidin-1-yl]-4-oxo-N-[(2R)-1,1,1-trifluorobutan-2-yl]-1,4-dihydro-1,8-naphthyridine-3-carboxamide] |
|  | 45 | 90 |  | CC[C@@H](NC(=O)c1cn(-c2ncc(F)cc2F)c2nc(N3CCCC(F)(F)C3)ccc2c1=O)C(F)(F)F [Example 72, 7-(3,3-Difluoropiperidin-1-yl)-1-(3,5-difluoropyridin-2-yl)-4-oxo-N-[(2R)-1,1,1-trifluorobutan-2-yl]-1,4-dihydro-1,8-naphthyridine-3-carboxamide] |
|  | 14 | 100 |  | CCC(NC(=O)c1cn(-c2ncc(F)cc2F)c2nc(N3CCNC3=O)ccc2c1=O)C(F)(F)C(F)(F)F (racemic) [Example 164, 1-(3,5-Difluoropyridin-2-yl)-4-oxo-7-(2-oxoimidazolidin-1-yl)-N-[1,1,1,2,2-pentafluoropentan-3-yl]-1,4-dihydro-1,8-naphthyridine-3-carboxamide] |
